Reference: ChEMBL document CHEMBL1143116, “Synthesis and biological evaluation of 5-(pyridin-2-yl)thiazoles as transforming growth factor-beta type1 receptor kinase inhibitors” (Bioorg Med Chem Lett, 2008)

Target: T1, TGF-beta receptor type-1 (Homo sapiens) (UniProt P36897)
T1 sequence (whole entry): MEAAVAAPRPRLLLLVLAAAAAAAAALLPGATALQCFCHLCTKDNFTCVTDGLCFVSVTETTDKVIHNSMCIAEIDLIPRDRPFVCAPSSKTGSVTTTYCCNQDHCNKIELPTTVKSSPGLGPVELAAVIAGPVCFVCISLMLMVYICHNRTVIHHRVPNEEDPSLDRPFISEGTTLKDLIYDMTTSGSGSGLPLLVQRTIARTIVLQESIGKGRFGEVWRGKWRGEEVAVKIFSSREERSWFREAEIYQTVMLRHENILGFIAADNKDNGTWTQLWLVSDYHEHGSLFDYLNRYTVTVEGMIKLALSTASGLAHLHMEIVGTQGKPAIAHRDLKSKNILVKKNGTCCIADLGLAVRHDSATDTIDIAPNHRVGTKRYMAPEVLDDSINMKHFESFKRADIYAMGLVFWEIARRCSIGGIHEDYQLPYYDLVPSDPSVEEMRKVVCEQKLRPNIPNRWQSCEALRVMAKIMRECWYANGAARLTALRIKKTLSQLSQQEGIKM
Assay: Inhibition of TGF-beta-induced ALK5 in human HaCaT cells assessed as p3TP-luciferase activity
Format: cell-based

- Activity: Dose-dependent effect
Structure (SMILES): Cc1cccc(-c2sc(NCc3cccc(C(N)=O)c3)nc2-c2ccc3nccnc3c2)n1
